Experimental data published in patent US7999069B2, “EphB receptor-binding peptides” (Sanford-Burnham Medical Research Institute, priority 2005, dated 2011).
No end group written: not given here.

Key:
EphB receptors [1] = test: Ephrin-B2 AP binding to different EphB ectodomains in presence of peptide (selectivity); details: 50 μM peptide
Protocol: Ephrin-B2 AP binding to the indicated immobilized EphB receptor ectodomains was measured in the presence of the indicated peptides and detected by measuring alkaline phosphatase activity. […] Wells coated with the different EphB ectodomains were incubated with ephrin-B2 AP and 50 μM of the indicated peptides. Ephrin-B2 AP binding in the presence of peptide was normalized to binding in the absence of peptide. All peptides were biotinylated except for FSPQ and EWYM. […] The EWYM, TWO, and FSPQ peptides were not synthesized with a biotin tag and therefore were tested directly for inhibition of ephrin-B2 binding.
Ephrin-B2 AP was co-incubated for 1 hr with different peptide concentrations in Ni-NTA wells coated with 1 μg/ml Eph receptor Fc. After several washes, the amount of ephrin-B2-AP bound was quantified using p-nitrophenylphosphate as a substrate. Alkaline phosphatase activity from wells without EphB Fc was subtracted as background. […] In these experiments, the two peptides are not biotinylated. […] Ephrin-B2-AP binding in the presence of peptide was normalized to binding in the absence of peptide in (A) and (B).

Eph receptor Fc proteins = test: Immobilized biotinylated peptides capturing Eph receptor Fc proteins on streptavidin plates; format: binding; details: A- and B-class Eph receptor Fc proteins
Protocol: To measure the specificity of peptide binding to Eph receptors, biotinylated peptides were immobilized on streptavidin-coated plates at 10 μM (Pierce Biotechnology, Rockford, Ill.) and incubated for 1 hr with different Eph ectodomain Fc fusion proteins at 2.5 μg/ml in binding buffer. Bound receptor was detected using an anti-Fc antibody coupled to alkaline phosphatase (Promega) with p-nitrophenylphosphate as substrate (Pierce). The background that was subtracted from the measurements was determined by omitting the Eph ectodomain.
Most of the peptides were synthesized with a biotin tag and immobilized on streptavidin plates to verify their ability to capture the EphB ectodomains used for their isolation.
Biotinylated peptides were immobilized on streptavidin-coated plates and used to capture Eph receptor Fc proteins. Bound receptor was detected using anti-Fc antibody coupled to alkaline phosphatase and was normalized to the value in the well with highest receptor binding.

EphB1 = biological target: T1, EphB1 (Homo sapiens, UniProt P54762); test: Ephrin-B1 Fc-induced EphB1 tyrosine phosphorylation in human aortic endothelial cells; format: cell-based; details: concentrations up to 200 μM
T1 construct: endogenous EphB1 tyrosine phosphorylation; endogenous in cells; host or cells: human aortic endothelial cells
T1 sequence (P54762 18-984): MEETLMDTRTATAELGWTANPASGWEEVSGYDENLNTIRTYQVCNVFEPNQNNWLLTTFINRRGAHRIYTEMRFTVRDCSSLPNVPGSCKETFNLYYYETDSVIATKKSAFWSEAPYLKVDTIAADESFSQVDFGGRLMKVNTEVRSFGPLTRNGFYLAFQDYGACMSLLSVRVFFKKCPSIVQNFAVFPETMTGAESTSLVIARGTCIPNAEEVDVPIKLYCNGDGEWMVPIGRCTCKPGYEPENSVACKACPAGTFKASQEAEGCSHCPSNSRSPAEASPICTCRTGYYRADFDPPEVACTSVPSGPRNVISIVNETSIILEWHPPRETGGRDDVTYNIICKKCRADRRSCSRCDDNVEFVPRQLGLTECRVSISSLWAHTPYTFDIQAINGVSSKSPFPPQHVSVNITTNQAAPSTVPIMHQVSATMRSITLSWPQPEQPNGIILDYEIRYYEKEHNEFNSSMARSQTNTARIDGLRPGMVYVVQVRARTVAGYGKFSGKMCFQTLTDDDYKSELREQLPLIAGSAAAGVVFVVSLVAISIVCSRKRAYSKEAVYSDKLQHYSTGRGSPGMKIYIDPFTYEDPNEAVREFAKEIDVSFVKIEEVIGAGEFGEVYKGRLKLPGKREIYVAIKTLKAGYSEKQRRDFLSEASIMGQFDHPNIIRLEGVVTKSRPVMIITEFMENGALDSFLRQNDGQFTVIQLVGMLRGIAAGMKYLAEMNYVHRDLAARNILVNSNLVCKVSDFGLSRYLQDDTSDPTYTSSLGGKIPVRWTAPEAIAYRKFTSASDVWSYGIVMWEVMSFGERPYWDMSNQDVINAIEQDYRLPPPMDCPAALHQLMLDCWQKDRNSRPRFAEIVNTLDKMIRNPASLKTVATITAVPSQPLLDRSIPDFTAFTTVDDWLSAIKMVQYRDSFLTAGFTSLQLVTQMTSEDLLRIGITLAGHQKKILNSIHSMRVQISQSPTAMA

EphB receptors [2] = test: Peptide pull-down of endogenous EphB receptors from lysates; format: binding; details: peptide on streptavidin beads; mouse brain or cultured cell lysates
Protocol: The ability of the peptides to bind in a stable manner, which is important for both targeting and competitive inhibition, was tested in pull-down experiments. For peptide pull-down experiments, cells in 60 cm plates at 70% confluency or adult mouse brain tissue were solubilized in pull-down buffer (50 mM HEPES pH 7.5, 150 mM NaCl, 10% glycerol, 1% Triton-X100, 5 mM KCl and 1 mM EDTA). Three μg of biotinylated peptide were incubated for 45-90 min with 5 μl streptavidin agarose beads (Sigma), unbound peptide was washed away, and the beads were incubated with the cell lysates for 45-90 min. Proteins bound to the beads were separated by SDS-polyacrylamide gel electrophoresis and probed by immunoblotting with EphB1, EphB2, or EphB4 antibodies. The EphB1 antibody (Santa Cruz) was detected with a secondary anti-goat IgG peroxidase-conjugated antibody (BioRad Laboratories). The EphB2 and EphB4 antibodies were affinity-purified polyclonal antibodies to GST fusion proteins containing approximately 100 amino acids from the carboxy-terminal tails of the EphB2 or EphB4 receptors (Noren, N. K. et al. 2004 PNAS USA 101:5583-5588; Holash, J. A. & Pasquale, E. B. 1995 Devel Biol 172:683-693) and were detected with a secondary anti-rabbit IgG peroxidase-conjugated antibody (Amersham Biosciences). […]

Selectivity of antagonism of ephrin-B2 AP binding across EphB ectodomains (EphB receptors [1]): selective
Eph receptor binding selectivity of immobilized biotinylated peptide (Eph receptor Fc proteins): bound selectively to EphB1
Stable binding of EphB receptors in pull-down (EphB receptors [2]): stably bind EphB receptors
Sequence: EWLSPNLAPSVR [SEQ ID NO 1]
Inhibition of endogenous EphB1 tyrosine phosphorylation (EphB1): did not inhibit endogenous EphB1 tyrosine phosphorylation
